Non-standard residues stand in square brackets, D forms with d. Residues, ends and D or L forms follow the SMILES beside them. Cit = NC(=O)NCCC[C@H](N)C(=O)O
The compounds below were run against T1, DR0401 protein (Homo sapiens, UniProt P01903+P01911, A100K/A169T/F76Y/I96L/K127E/L162R/M171V/N62H/P40V/Q125Y/R42H/S133A/S149N/S66Y/V115G/V209L/W38E) (assay: DR0401 peptide binding competition assay). Conditions: Supplementary Table 2; competition with biotin-HA306-318 0.02 μM; read-out: IC50 (Binding of Predicted Glucokinase Peptides to DR04:01).
T1 construct: made in house; host or cells: insect cell cultures
`CC[C@H](C)[C@H](NC(=O)[C@H](CC(N)=O)NC(=O)[C@@H](N)Cc1ccc(O)cc1)C(=O)N[C@@H](CC(C)C)C(=O)N[C@@H](CO)C(=O)N[C@H](C(=O)N[C@@H](CC(C)C)C(=O)NCC(=O)N[C@@H](CC(C)C)C(=O)N[C@@H](CCCNC(N)=O)C(=O)N1CCC[C@H]1C(=O)N[C@@H](CO)C(=O)N[C@H](C(=O)N[C@H](C(=O)N[C@@H](CC(=O)O)C(=O)O)[C@@H](C)O)[C@@H](C)O)[C@@H](C)O` [GK 349-363] (H-YNILSTLGL[Cit]PSTTD-OH; N-terminus and C-terminus assumed) gave an IC50 of over 50 µM.
In the case of `CC[C@H](C)[C@H](NC(=O)[C@@H](NC(=O)CNC(=O)[C@H](C)N)C(C)C)C(=O)N[C@@H](CC(N)=O)C(=O)N[C@@H](CCCNC(N)=O)C(=O)N[C@@H](CCSC)C(=O)N[C@@H](CCCNC(N)=O)C(=O)N[C@@H](CCC(=O)O)C(=O)N[C@@H](CO)C(=O)N[C@@H](CCCNC(N)=O)C(=O)N[C@@H](CO)C(=O)N[C@@H](CCC(=O)O)C(=O)N[C@@H](CC(=O)O)C(=O)N[C@H](C(=O)O)C(C)C` [GK 387-401] (H-AGVIN[Cit]M[Cit]ES[Cit]SEDV-OH; N-terminus and C-terminus assumed), the IC50 is reported as over 50 µM.
`CC(C)C[C@H](NC(=O)[C@H](CCC(N)=O)NC(=O)[C@H](CCC(=O)O)NC(=O)[C@H](CO)NC(=O)[C@H](C)NC(=O)[C@H](CCC(=O)O)NC(=O)CNC(=O)[C@H](Cc1c[nH]cn1)NC(=O)[C@H](Cc1ccccc1)NC(=O)[C@H](CC(C)C)NC(=O)[C@H](CC(C)C)NC(=O)[C@H](CC(N)=O)NC(=O)[C@H](CCC(=O)O)NC(=O)[C@@H](N)CC(=O)O)C(=O)O` [GK 311-324] (H-DENLLFHGEASEQL-OH; N-terminus and C-terminus assumed) gave an IC50 of over 50 µM.
Compound `CC[C@H](C)[C@H](NC(=O)[C@H](CC(=O)O)NC(=O)[C@H](CS)NC(=O)[C@H](CC(=O)O)NC(=O)[C@@H](NC(=O)[C@@H](NC(=O)[C@H](CO)NC(=O)[C@@H]1CCCN1C(=O)[C@H](CCCNC(N)=O)NC(=O)[C@H](CC(C)C)NC(=O)CNC(=O)[C@H](CC(C)C)NC(=O)[C@@H](NC(=O)[C@H](CO)NC(=O)[C@@H](N)CC(C)C)[C@@H](C)O)[C@@H](C)O)[C@@H](C)O)C(=O)O` [GK 352-366] (H-LSTLGL[Cit]PSTTDCDI-OH; N-terminus and C-terminus assumed) has an IC50 of over 50 µM.
`CC(C)[C@H](NC(=O)[C@H](CCC(N)=O)NC(=O)[C@H](CO)NC(=O)[C@@H](NC(=O)[C@H](Cc1ccccc1)NC(=O)[C@H](CCCNC(N)=O)NC(=O)[C@@H](NC(=O)[C@H](CCC(=O)O)NC(=O)[C@H](Cc1ccccc1)NC(=O)[C@H](C)NC(=O)CNC(=O)[C@@H](N)CCCNC(=N)N)[C@@H](C)O)C(C)C)C(=O)N[C@@H](CCC(=O)O)C(=O)N[C@@H](CO)C(=O)N[C@@H](CC(=O)O)C(=O)O` [GK 327-341] (H-RGAFET[Cit]FVSQVESD-OH; N-terminus and C-terminus assumed) was tested, and the IC50 was over 50 µM.
Work on `CC[C@H](C)[C@H](NC(=O)[C@H](Cc1ccccc1)NC(=O)[C@@H](NC(=O)[C@@H](NC(=O)[C@@H](N)CCC(=O)O)[C@@H](C)CC)[C@@H](C)O)C(=O)N[C@@H](CCC(=O)O)C(=O)N[C@@H](CO)C(=O)N[C@@H](CCC(=O)O)C(=O)N[C@@H](CCC(=O)O)C(=O)NCC(=O)N[C@@H](CO)C(=O)NCC(=O)N[C@@H](CCCNC(N)=O)C(=O)NCC(=O)N[C@@H](C)C(=O)O` [GK 435-449] (H-EITFIESEEGSG[Cit]GA-OH; N-terminus and C-terminus assumed) yielded an IC50 of over 50 µM.
Work on `CSCC[C@H](NC(=O)[C@H](CCCCN)NC(=O)[C@@H](NC(=O)[C@H](CO)NC(=O)[C@H](C)NC(=O)[C@H](CCC(=O)O)NC(=O)[C@H](CCC(=O)O)NC(=O)[C@H](Cc1c[nH]cn1)NC(=O)[C@@H](NC(=O)[C@H](CCC(=O)O)NC(=O)[C@H](CC(C)C)NC(=O)[C@H](CCCNC(N)=O)NC(=O)[C@H](CC(C)C)NC(=O)CN)[C@@H](C)O)C(C)C)C(=O)N[C@@H](CC(C)C)C(=O)O` [GK 44-58] (H-GL[Cit]LETHEEASVKML-OH; N-terminus and C-terminus assumed) yielded an IC50 of over 50 µM.
`CSCC[C@H](NC(=O)[C@@H](NC(=O)[C@H](CCCNC(=N)N)NC(=O)[C@H](Cc1ccccc1)NC(=O)[C@H](CC(N)=O)NC(=O)[C@@H](NC(=O)CN)[C@@H](C)O)C(C)C)C(=O)N[C@@H](CC(C)C)C(=O)N[C@H](C(=O)N[C@@H](CCCCN)C(=O)N[C@H](C(=O)NCC(=O)N[C@@H](CCC(=O)O)C(=O)NCC(=O)N[C@@H](CCC(=O)O)C(=O)O)C(C)C)C(C)C` [GK 81-95] (H-GTNFRVMLVKVGEGE-OH) showed an IC50 of 15.3 µM.

Same assay, conditions: Supplementary Table 3; competition with biotin-HA306-318 0.02 μM; representative values from two replicate experiments; read-out: IC50 (Effect of Citrulline or Arg Substitution)
For `CC[C@H](C)[C@H](NC(=O)[C@H](CC(N)=O)NC(=O)[C@H](Cc1ccc(O)cc1)NC(=O)[C@@H](NC(=O)[C@H](CCC(N)=O)NC(=O)[C@@H](N)CCCCN)[C@@H](C)CC)C(=O)N[C@@H](CC(C)C)C(=O)N[C@@H](CO)C(=O)N[C@H](C(=O)N[C@@H](CC(C)C)C(=O)NCC(=O)N[C@@H](CC(C)C)C(=O)N[C@@H](CCCNC(=N)N)C(=O)N1CCC[C@H]1C(=O)N[C@@H](CO)C(=O)O)[C@@H](C)O` [GK 346 WT] (H-KQIYNILSTLGLRPS-OH), the IC50 was 0.47 µM.
With `CC[C@H](C)[C@H](NC(=O)[C@H](CC(N)=O)NC(=O)[C@H](Cc1ccc(O)cc1)NC(=O)[C@@H](NC(=O)[C@H](CCC(N)=O)NC(=O)[C@@H](N)CCCCN)[C@@H](C)CC)C(=O)N[C@@H](CC(C)C)C(=O)N[C@@H](CO)C(=O)N[C@H](C(=O)N[C@@H](CC(C)C)C(=O)NCC(=O)N[C@@H](CC(C)C)C(=O)N[C@@H](CCCNC(N)=O)C(=O)N1CCC[C@H]1C(=O)N[C@@H](CO)C(=O)O)[C@@H](C)O` [GK 346] (H-KQIYNILSTLGL[Cit]PS-OH) the IC50 was 0.54 µM.
Compound `CC(C)C[C@H](NC(=O)[C@H](CCCNC(N)=O)NC(=O)[C@H](CC(=O)O)NC(=O)[C@H](Cc1ccc(O)cc1)NC(=O)[C@H](CCC(=O)O)NC(=O)[C@H](CC(C)C)NC(=O)[C@@H](N)CC(C)C)C(=O)N[C@H](C(=O)N[C@@H](CC(=O)O)C(=O)N[C@@H](CCC(=O)O)C(=O)N[C@@H](CO)C(=O)N[C@@H](CO)C(=O)N[C@@H](C)C(=O)N[C@@H](CC(N)=O)C(=O)N1CCC[C@H]1C(=O)O)C(C)C` [GK 270 Cit] (H-LLEYD[Cit]LVDESSANP-OH) has an IC50 of 8.6 µM.
With `CC(C)C[C@H](NC(=O)[C@H](CC(C)C)NC(=O)[C@H](Cc1ccccc1)NC(=O)[C@H](CCC(=O)O)NC(=O)[C@H](CC(=O)O)NC(=O)[C@@H](N)CC(C)C)C(=O)N[C@@H](CCC(=O)O)C(=O)N[C@@H](Cc1ccc(O)cc1)C(=O)N[C@@H](CC(=O)O)C(=O)N[C@@H](CCCNC(N)=O)C(=O)N[C@@H](CC(C)C)C(=O)N[C@H](C(=O)N[C@@H](CC(=O)O)C(=O)N[C@@H](CCC(=O)O)C(=O)N[C@@H](CO)C(=O)O)C(C)C` [GK 266 Cit] (H-LDEFLLEYD[Cit]LVDES-OH) the IC50 was 9.5 µM.

Same assay, conditions: Table 1; competition with biotinylated HA306-318 reference peptide at 0.02 μM in DR0401-coated wells; europium-streptavidin time resolved fluorescence; concentration that displaces half of the reference peptide; read-out: IC50 (binding to DR0401)
`CC(C)C[C@H](NC(=O)[C@H](CCCNC(=N)N)NC(=O)[C@H](CC(=O)O)NC(=O)[C@H](Cc1ccc(O)cc1)NC(=O)[C@H](CCC(=O)O)NC(=O)[C@H](CC(C)C)NC(=O)[C@@H](N)CC(C)C)C(=O)N[C@H](C(=O)N[C@@H](CC(=O)O)C(=O)N[C@@H](CCC(=O)O)C(=O)N[C@@H](CO)C(=O)N[C@@H](CO)C(=O)N[C@@H](C)C(=O)N[C@@H](CC(N)=O)C(=O)N1CCC[C@H]1C(=O)O)C(C)C` [GK 270] (H-LLEYDRLVDESSANP-OH) showed an IC50 of 2 µM.
With `CSCC[C@H](NC(=O)[C@H](C)NC(=O)[C@@H](NC(=O)[C@@H](NC(=O)[C@H](CC(=O)O)NC(=O)[C@H](CCSC)NC(=O)[C@H](CCC(=O)O)NC(=O)[C@H](Cc1ccccc1)NC(=O)[C@H](CC(=O)O)NC(=O)CNC(=O)[C@@H](N)CCCNC(=N)N)C(C)C)C(C)C)C(=O)N[C@H](C(=O)N[C@@H](CC(N)=O)C(=O)N[C@@H](CC(=O)O)C(=O)N[C@H](C(=O)O)[C@@H](C)O)C(C)C` [GK 192] (H-RGDFEMDVVAMVNDT-OH) the IC50 was 0.35 µM.

Reference: article PMC8986778, “Citrullination of glucokinase is linked to autoimmune diabetes” (Nature Communications, 2022)
